Experimental data taken from the NIST ThermoML archive (doi:10.1016/j.tca.2016.12.010).

What was measured:
[1] = refractive index (Na D-line) (dimensionless); xn = mol fraction of the nth substance listed; settings: 94.9 kPa, Liquid, (Schmidt +Haensch) refractometer (Model DSR lambda)
[2] = xn = mol fraction of the nth substance listed; settings: 94.9 kPa, Liquid, Vibrating tube method

CCCCCCCCO [octan-1-ol] + Cc1ccccc1
Settings | mass density, [2] [kg/m3] | refractive index, [1]
293.15 K, x1 = 0.1041 | 859.2 | 1.48465
293.15 K, x1 = 0.1973 | 853.95 | 1.4763
293.15 K, x1 = 0.3018 | 848.87 | 1.4681
293.15 K, x1 = 0.4033 | 844.52 | 1.46072
293.15 K, x1 = 0.5035 | 840.66 | 1.45442
293.15 K, x1 = 0.6007 | 837.23 | 1.44894
293.15 K, x1 = 0.6996 | 834.03 | 1.44373
293.15 K, x1 = 0.793 | 831.2 | 1.43912
293.15 K, x1 = 0.9044 | 828.07 | 1.4338
293.15 K, x1 = 1 | 825.57 | 1.4295
298.15 K, x1 = 0.1041 | 854.47 | 1.48192
298.15 K, x1 = 0.1973 | 849.33 | 1.47333
298.15 K, x1 = 0.3018 | 844.4 | 1.46514
298.15 K, x1 = 0.4033 | 840.2 | 1.45795
298.15 K, x1 = 0.5035 | 836.46 | 1.45173
298.15 K, x1 = 0.6007 | 833.15 | 1.44634
298.15 K, x1 = 0.6996 | 830.05 | 1.44116
298.15 K, x1 = 0.793 | 827.33 | 1.43666
298.15 K, x1 = 0.9044 | 824.31 | 1.43178
298.15 K, x1 = 1 | 821.9 | 1.42748
303.15 K, x1 = 0.1041 | 849.63 | 1.47921
303.15 K, x1 = 0.1973 | 844.59 | 1.47041
303.15 K, x1 = 0.3018 | 839.8 | 1.46231
303.15 K, x1 = 0.4033 | 835.73 | 1.45514
303.15 K, x1 = 0.5035 | 832.13 | 1.44904
303.15 K, x1 = 0.6007 | 828.94 | 1.44377
303.15 K, x1 = 0.6996 | 825.95 | 1.43893
303.15 K, x1 = 0.793 | 823.32 | 1.43469
303.15 K, x1 = 0.9044 | 820.4 | 1.4298
303.15 K, x1 = 1 | 818.08 | 1.42561
308.15 K, x1 = 0.1041 | 844.83 | 1.47628
308.15 K, x1 = 0.1973 | 839.89 | 1.46762
308.15 K, x1 = 0.3018 | 835.26 | 1.45938
308.15 K, x1 = 0.4033 | 831.33 | 1.45234
308.15 K, x1 = 0.5035 | 827.86 | 1.44634
308.15 K, x1 = 0.6007 | 824.78 | 1.44118
308.15 K, x1 = 0.6996 | 821.9 | 1.43647
308.15 K, x1 = 0.793 | 819.36 | 1.43239
308.15 K, x1 = 0.9044 | 816.55 | 1.42757
308.15 K, x1 = 1 | 814.31 | 1.42369
313.15 K, x1 = 0.1041 | 840.03 | 1.47333
313.15 K, x1 = 0.1973 | 835.16 | 1.46463
313.15 K, x1 = 0.3018 | 830.67 | 1.45656
313.15 K, x1 = 0.4033 | 826.9 | 1.44956
313.15 K, x1 = 0.5035 | 823.56 | 1.44362
313.15 K, x1 = 0.6007 | 820.6 | 1.43864
313.15 K, x1 = 0.6996 | 817.82 | 1.43413
313.15 K, x1 = 0.793 | 815.37 | 1.43002
313.15 K, x1 = 0.9044 | 812.65 | 1.42559
313.15 K, x1 = 1 | 811.09 | 1.42169
318.15 K, x1 = 0.1041 | 835.18 | 1.47014
318.15 K, x1 = 0.1973 | 830.43 | 1.46186
318.15 K, x1 = 0.3018 | 826.08 | 1.45372
318.15 K, x1 = 0.4033 | 822.45 | 1.44685
318.15 K, x1 = 0.5035 | 819.25 | 1.44101
318.15 K, x1 = 0.6007 | 816.41 | 1.43601
318.15 K, x1 = 0.6996 | 813.74 | 1.43149
318.15 K, x1 = 0.793 | 811.38 | 1.4277
318.15 K, x1 = 0.9044 | 808.77 | 1.42342
318.15 K, x1 = 1 | 807.7 | 1.41973
323.15 K, x1 = 0.1041 | 831.72 | 1.46755
323.15 K, x1 = 0.1973 | 827.05 | 1.45882
323.15 K, x1 = 0.3018 | 822.76 | 1.45094
323.15 K, x1 = 0.4033 | 819.26 | 1.44415
323.15 K, x1 = 0.5035 | 816.18 | 1.43836
323.15 K, x1 = 0.6007 | 813.46 | 1.43341
323.15 K, x1 = 0.6996 | 810.87 | 1.42902
323.15 K, x1 = 0.793 | 808.58 | 1.42541
323.15 K, x1 = 0.9044 | 806.05 | 1.42136
323.15 K, x1 = 1 | 804.05 | 1.41783
333.15 K, x1 = 0.1041 | 822.45 | 1.46181
333.15 K, x1 = 0.1973 | 817.92 | 1.45314
333.15 K, x1 = 0.3018 | 813.92 | 1.44526
333.15 K, x1 = 0.4033 | 810.68 | 1.43873
333.15 K, x1 = 0.5035 | 807.88 | 1.43312
333.15 K, x1 = 0.6007 | 805.4 | 1.42831
333.15 K, x1 = 0.6996 | 803.05 | 1.42423
333.15 K, x1 = 0.793 | 800.97 | 1.42094
333.15 K, x1 = 0.9044 | 798.68 | 1.41714
333.15 K, x1 = 1 | 796.88 | 1.41407
